# US9512152B2, “Phospholipid compound containing unsaturated fatty acid derivative having cyclopropane ring” (NISHIZAKI BIOINFORMATION RESEARCH INSTITUTE, priority 2013, dated 2016)
# Key:
# [1] = system: STZ-treated C57BL/6J mouse; assay: Oral glucose tolerance test in streptozotocin-treated type 1 diabetes model mouse; type: in vivo; details: oral 1 mg/kg, 4 consecutive days before OGTT and 30 min before glucose, FIG. 11
# Method: C57BL/6J mouse (male, 8-week-old) (Japan SLC Inc.; Shizuoka, Japan) was used. Streptozotocin (STZ; 250 mg/kg) or saline as a control was injected intraperitoneally. After 4 days from the injection, an oral glucose tolerance test (OGTT) was performed.
# [2] = system: PKC isozymes; assay: Cell-free PKC assay; type: biochemical; details: 100 μM, FIG. 5
# Method: (§1) PKC activity in a cell-free system was quantified by the method described in a previous report (Kanno T et al. J Lipid Res 2006; 47: 1146-1156). In short, synthesized PKC substrate peptide (10 μM) was reacted with various PKC isozymes in a medium containing 20 mM Tris-HCl (pH 7.5), 5 mM magnesium acetate, 10 μM ATP, and DCP-LA-phospholipid in the absence of phosphatidylserine and diacylglycerol at 30° C. for 5 min. A Ca^2+-free medium was used for novel PKC such as PKC-δ, -ε and the like, and a 100 μM CaCl2-containing medium was used for other PKC isozymes. They were loaded on reversed-phase HPLC (LC-10ATvp, Shimadzu Co., Kyoto, Japan), and the peaks of substrate peptide and new resultant products were measured at an absorbance of 214 nm. The areas of non-phosphorylated PKC substrate peptide and phosphorylated PKC substrate peptide were measured (total area corresponds to the concentration of PKC substrate peptide used in this Example), and the amount of the phosphorylated substrate peptide was calculated. The amount of the phosphorylated substrate peptide (pmol/1 min) per 1 min was used as an index of the PKC activity.
# [3] = target: T1, PKCζ (Homo sapiens, UniProt Q05513); assay: Cell-free PKC assay; type: biochemical; details: 100 μM, FIG. 6
# T1 sequence (Q05513 1-592): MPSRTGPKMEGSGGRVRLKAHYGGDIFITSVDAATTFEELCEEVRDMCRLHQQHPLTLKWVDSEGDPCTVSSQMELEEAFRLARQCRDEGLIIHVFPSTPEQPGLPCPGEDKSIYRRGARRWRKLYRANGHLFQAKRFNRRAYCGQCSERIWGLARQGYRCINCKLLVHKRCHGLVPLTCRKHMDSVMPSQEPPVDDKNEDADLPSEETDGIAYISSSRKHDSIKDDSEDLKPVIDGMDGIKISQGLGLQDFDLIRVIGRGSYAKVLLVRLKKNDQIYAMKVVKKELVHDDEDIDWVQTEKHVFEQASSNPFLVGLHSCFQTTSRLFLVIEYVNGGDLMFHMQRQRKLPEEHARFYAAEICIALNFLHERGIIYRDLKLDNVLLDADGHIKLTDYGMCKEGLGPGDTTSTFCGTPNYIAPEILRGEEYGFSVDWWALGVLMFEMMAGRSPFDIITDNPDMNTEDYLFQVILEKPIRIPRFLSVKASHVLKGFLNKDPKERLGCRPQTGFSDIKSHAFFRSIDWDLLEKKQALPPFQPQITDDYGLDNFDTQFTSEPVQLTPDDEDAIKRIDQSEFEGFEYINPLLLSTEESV
# Method: as §1
# [4] = target: T2, PKCι (Homo sapiens, UniProt P41743); assay: Cell-free PKC assay; type: biochemical; details: 100 μM, FIG. 6
# T2 sequence (P41743 1-596): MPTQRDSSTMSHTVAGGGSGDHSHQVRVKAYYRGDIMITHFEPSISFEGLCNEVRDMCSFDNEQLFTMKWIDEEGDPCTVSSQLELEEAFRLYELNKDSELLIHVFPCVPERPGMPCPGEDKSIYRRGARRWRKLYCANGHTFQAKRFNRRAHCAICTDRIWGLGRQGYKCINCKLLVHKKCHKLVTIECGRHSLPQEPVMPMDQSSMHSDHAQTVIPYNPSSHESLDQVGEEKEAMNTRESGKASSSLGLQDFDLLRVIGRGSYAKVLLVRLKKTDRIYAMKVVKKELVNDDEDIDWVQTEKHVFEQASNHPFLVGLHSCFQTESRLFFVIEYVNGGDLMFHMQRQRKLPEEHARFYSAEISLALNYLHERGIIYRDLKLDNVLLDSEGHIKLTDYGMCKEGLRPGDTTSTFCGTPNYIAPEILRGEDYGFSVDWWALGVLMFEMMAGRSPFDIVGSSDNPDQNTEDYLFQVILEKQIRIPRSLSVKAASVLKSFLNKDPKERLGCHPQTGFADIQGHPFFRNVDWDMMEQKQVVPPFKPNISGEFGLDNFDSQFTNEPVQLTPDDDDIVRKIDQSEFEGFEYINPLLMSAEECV
# Method: as §1
structure (smiles),measurement,setting,value
"CCCCCC1CC1CC1CC1CCCCCCCC(=O)OC[C@H](COP(=O)(O)OCCN)OC(=O)CCCCCCCC1CC1CC1CC1CCCCC (stereo partly shown) [diDCP-LA-PE, 1,2-o-bis-[8-{2-(2-pentyl-cyclopropylmethyl)-cyclopropyl}-octanoyl]-sn-glycero-3-phosphatidylethanolamine]",Suppression of increase in blood glucose,[1],significantly suppresses an increase in the blood glucose
same,"PKC activation, all PKC isozymes",[2],activates all PKC isozymes
same,"PKCζ activation, specificity",[3],specific activating agent of PKCι and PKCζ
same,"PKCι activation, specificity",[4],specific activating agent of PKCι and PKCζ
